Data from patent US9400280B2, “Piperidine derivatives and methods of treating hepatitis B infections” (Novira Therapeutics, Inc., priority 2014, dated 2016).

Experiments:
[1] = molecular target: HBV C150Bo capsid (core) protein (Hepatitis B virus genotype D subtype adw, UniProt P03147, C107A/C48A/C61A/R150C); assay: HBV assembly assay (fluorescence quenching in vitro capsid assembly); type: biochemical; conditions: at about 10 μM; 50 mM Hepes pH 7.5, 150 mM NaCl, 1 hour at room temperature
[2] = test system: HBV replication in HepG2-2.2.15 cells; assay: Dot-blot assay (inhibition of HBV replication); type: cell-based; conditions: at 10 μM, six days, reduction in HBV DNA levels
Method: Compounds active in the HBV assembly assay are tested for their activity and toxicity in cellular assay. In the first anti-viral assay, the ability of compounds to inhibit HBV replication in an HBV-producing hepatoma cell line using the dot-blot method is evaluated.
Briefly, confluent monolayers of HepG2-2.2.15 cells are incubated with complete medium containing various concentrations of a test compound. Three days later, the culture medium is replaced with fresh medium containing the appropriately diluted test compound. Six days following the initial administration of the test compound, the cell culture supernatant is collected, and cell lysis is performed. The samples are applied onto Nylos membranes and DNA is immobilized to the membrane by UV cross-linking. After pre-hybridization, the HBV probe is added and the hybridization is performed overnight. The membranes are exposed to the Kodak films; antiviral activity is calculated from the reduction in HBV DNA levels (EC50). The EC50 for antiviral activity is calculated from the dose response curves of active compounds. Assay performance over time is monitored by the use of the standard positive control compounds ETV, BAY 41-4109, and HAP-1.
Selected compounds were tested for their activity and toxicity in cellular assay. In the first anti-viral assay, the ability of compounds to inhibit HBV replication in an HBV-producing hepatoma cell line using the dot-blot method was evaluated.
Confluent monolayers of HepG2-2.2.15 cells were incubated with complete medium containing various concentrations of a test compound. Three days later, the culture medium was replaced with fresh medium containing the appropriately diluted test compound. Six days following the initial administration of the test compound, the cell culture supernatant was collected, and cell lysis was performed. The samples were applied onto Nylos membranes and DNA was immobilized to the membrane by UV cross-linking. After pre-hybridization, the HBV probe was added and the hybridization was performed overnight. The membranes were exposed to the Kodak films; antiviral activity was calculated from the reduction in HBV DNA levels (EC50). The EC50 for antiviral activity was calculated from the dose response curves of active compounds. Assay performance over time was monitored by the use of the standard positive control compounds ETV, BAY 41-4109, and HAP-1.

Sequence of HBV C150Bo capsid (core) protein (P03147 1-150 C48A/C61A/C107A/R150C): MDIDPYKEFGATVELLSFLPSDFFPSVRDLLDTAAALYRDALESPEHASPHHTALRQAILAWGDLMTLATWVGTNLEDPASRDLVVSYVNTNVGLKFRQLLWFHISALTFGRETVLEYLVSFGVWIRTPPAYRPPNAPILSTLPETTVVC

SMILES: O=C(Nc1cc(F)c(F)c(F)c1)c1ccc(F)c(S(=O)(=O)N2CCC(O)C(F)(F)C2)c1 (stereo not drawn) [Compound 1732]
- Activity (HBV assembly assay) [1]: + (‘+’ indicates >50% activity at about 10 (μM))
- Activity in dot-blot-assay [2]: + (‘+’ indicates >50% activity at 10 (μM))

SMILES: O=C(Nc1ccc(F)c(F)c1)c1ccc(F)c(S(=O)(=O)N2CCC(O)C(F)(F)C2)c1 (stereo not drawn) [Compound 1733]
- Activity (HBV assembly assay) [1]: + (‘+’ indicates >50% activity at about 10 (μM))
- Activity in dot-blot-assay [2]: + (‘+’ indicates >50% activity at 10 (μM))

SMILES: O=C(Nc1ccc(F)c(Cl)c1)c1ccc(F)c(S(=O)(=O)N2CCC(O)C(F)(F)C2)c1 (stereo not drawn) [Compound 1734]
- Activity (HBV assembly assay) [1]: + (‘+’ indicates >50% activity at about 10 (μM))
- Activity in dot-blot-assay [2]: + (‘+’ indicates >50% activity at 10 (μM))

SMILES: O=C(Nc1ccc(F)c(Cl)c1)c1ccc(O)c(S(=O)(=O)N2CCC(O)C(F)(F)C2)c1 (stereo not drawn) [Compound 1963]
- Activity (HBV assembly assay) [1]: + (‘+’ indicates >50% activity at about 10 (μM))

SMILES: COc1ccc(C(=O)Nc2ccc(F)c(Cl)c2)cc1S(=O)(=O)N1CCC(O)C(F)(F)C1 (stereo not drawn) [Compound 1964]
- Activity (HBV assembly assay) [1]: + (‘+’ indicates >50% activity at about 10 (μM))

SMILES: CCOc1ccc(C(=O)Nc2ccc(F)c(Cl)c2)cc1S(=O)(=O)N1CCC(O)C(F)(F)C1 (stereo not drawn) [Compound 1965]
- Activity (HBV assembly assay) [1]: + (‘+’ indicates >50% activity at about 10 (μM))

SMILES: O=C(Nc1ccc(F)c(Cl)c1)c1ccc(OC2CC2)c(S(=O)(=O)N2CCC(O)C(F)(F)C2)c1 (stereo not drawn) [Compound 1967]
- Activity (HBV assembly assay) [1]: + (‘+’ indicates >50% activity at about 10 (μM))

SMILES: O=C(Nc1ccc(F)c(Cl)c1)c1ccc(CF)c(S(=O)(=O)N2CCC(O)C(F)(F)C2)c1 (stereo not drawn) [Compound 1995]
- Activity (HBV assembly assay) [1]: + (‘+’ indicates >50% activity at about 10 (μM))
- Activity in dot-blot-assay [2]: + (‘+’ indicates >50% activity at 10 (μM))
